The text below walks through data of patent US20200062696A1, “COMPOSITIONS AND METHODS FOR INHIBITING RETICULON 4” (THE REGENTS OF THE UNIVERSITY OF CALIFORNIA, priority 2017, published 2020).

One test concerns the target T1, pure human RTN4 protein (Homo sapiens, UniProt Q9NQC3).
T1 construct: purchased Fisher Scientific
T1 sequence (Q9NQC3 1-1192): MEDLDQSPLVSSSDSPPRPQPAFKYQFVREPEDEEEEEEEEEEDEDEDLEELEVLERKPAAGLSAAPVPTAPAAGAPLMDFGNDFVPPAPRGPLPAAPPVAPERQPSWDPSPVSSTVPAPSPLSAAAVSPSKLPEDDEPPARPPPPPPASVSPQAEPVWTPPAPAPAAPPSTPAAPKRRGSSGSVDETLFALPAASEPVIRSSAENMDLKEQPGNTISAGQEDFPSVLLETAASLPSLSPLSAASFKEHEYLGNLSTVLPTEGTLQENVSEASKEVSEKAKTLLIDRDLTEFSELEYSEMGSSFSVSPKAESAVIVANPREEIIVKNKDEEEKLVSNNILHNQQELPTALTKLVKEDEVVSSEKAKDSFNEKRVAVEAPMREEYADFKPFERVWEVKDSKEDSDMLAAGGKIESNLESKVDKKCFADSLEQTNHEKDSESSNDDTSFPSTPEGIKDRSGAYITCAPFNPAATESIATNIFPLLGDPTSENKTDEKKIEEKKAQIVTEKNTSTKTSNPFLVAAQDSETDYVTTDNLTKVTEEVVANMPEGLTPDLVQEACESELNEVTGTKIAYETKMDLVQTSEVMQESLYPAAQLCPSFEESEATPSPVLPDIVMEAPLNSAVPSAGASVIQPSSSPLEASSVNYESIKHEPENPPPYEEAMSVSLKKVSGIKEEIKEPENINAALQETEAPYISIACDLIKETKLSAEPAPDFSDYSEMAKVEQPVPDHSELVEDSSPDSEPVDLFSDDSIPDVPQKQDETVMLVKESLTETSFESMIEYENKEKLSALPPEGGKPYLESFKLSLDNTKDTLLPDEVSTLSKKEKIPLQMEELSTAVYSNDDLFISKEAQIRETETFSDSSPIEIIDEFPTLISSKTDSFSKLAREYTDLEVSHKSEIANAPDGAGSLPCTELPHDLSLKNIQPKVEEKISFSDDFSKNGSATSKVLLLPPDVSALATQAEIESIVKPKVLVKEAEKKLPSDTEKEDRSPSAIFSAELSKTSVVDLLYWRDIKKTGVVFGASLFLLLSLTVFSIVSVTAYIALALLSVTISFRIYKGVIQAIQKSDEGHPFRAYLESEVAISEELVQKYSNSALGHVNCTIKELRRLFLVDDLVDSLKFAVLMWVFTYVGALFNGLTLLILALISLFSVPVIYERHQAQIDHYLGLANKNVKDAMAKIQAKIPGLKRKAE
Kind of test: Gel-based ABPP competition against IAyne labeling of pure human RTN4 protein. It is filed as binding. The method, then:
(§1) FIGS. 11A-11C. DKM 3-30 and analogs. (FIG. 11A) Structures of DKM 3-30 and analogs. (FIG. 11B) Gel-based ABPP analysis showing competition side-by-side competition studies of DKM 3-30, YP 1-46, and AMR 1-125 against IA-rhodamine labelling of pure human RTN4. Shown are the 50% inhibitory concentration (IC50) values for each compound. (FIG. 11C) Serum-free cell survival of U2OS (48 h) or SW620 (24 h) cells treated with DMSO vehicle or each compound (50 μM). Data in (C) are presented as mean±sem. Significance is expressed as *p<0.001 compared to vehicle-treated controls.
Gel-Based ABPP. Gel-based ABPP methods were performed as previously described^24. Recombinant RTN4 (0.06 μg) protein (RTN4-Fisher Scientific) were pre-treated with DMSO or DKM 3-30, respectively, for 1 h at 37° C. in an incubation volume of 50 μL PBS, and were subsequently treated with IAyne (10 μM final concentration) for 30 min at 37° C. CuAAC was performed to append rhodamine-azide onto IAyne probe-labeled proteins. The samples were separated by SDS/PAGE and scanned using a ChemiDoc MP (Bio-Rad Laboratories, Inc). Inhibition of target labeling was assessed by densitometry using ImageStudio Light software.

The test system of a further test is U2OS osteosarcoma cells. The test is described as follows: Serum-free cell survival of U2OS cells. The following applies: 50 μM, 48 h. It is filed as cell-based. The method, then: as §1
(§2) Cell Culture. SW620 cells were purchased from ATCC. SW620 cells were grown in L-15 media with 10% fetal bovine serum (FBS) in ambient CO2. U2OS cells were grown in DMEM media supplemented with 10% FBS at 37° C. with 5% CO2.
(§3) Survival and Proliferation Assays. Cells were plated the evening before the experiment, and allowed to adhere overnight. For serum-free cell survival assays, cells were plated in media not containing FBS. For cell proliferation assays, cells were plated in regular media. For the chemical genetics screen, cells were treated with either DMSO or the cysteine-reactive fragment for 48 h and cell viability was assessed by Hoescht stain using our previously described methods

Test [1] has as its system U2OS cells expressing GFP-tagged Sec61β. The test is described as follows: ER morphology by fluorescence microscopy in U2OS cells expressing GFP-Sec61β. It is filed as cell-based. As to conditions: DKM 3-30 50 μM (8 hr, 16 hr, time-lapse); AMR 1-125 1 μM; YP 1-46 50 μM. The protocol:
Fluorescence microscopy. SW620 and U2OS cells were transiently transfected with a plasmid encoding GFP-tagged Sec61β using fuGENE6 (Roche) according to the manufacturer's instructions. Transfected cells plated on poly-L-lysine treated coverslips were treated, washed in PBS, and fixed by incubation in 4% paraformaldehyde in PBS for 10 min. Fixed cells were washed extensively in PBS and nuclei stained by addition of 4′,6-diamidino-2-phenylindole (DAPI) (Thermo Fisher Scientific) for 10 min. Coverslips were mounted using Fluoromount-G (SouthernBiotech) and visualized using a DeltaVision Elite microscope outfitted with a 60× oil immersion objective. Acquired stacks of images of fixed cells were deconvolved and analyzed using SoftWoRx and ImageJ. For time-lapse imaging of live cells, transfected cells were plated on poly-L-lysine treated glass-bottom 4-well imaging chambers (Lab-Tek II; Thermo Fisher Scientific). Imaging was performed using a DeltaVision Elite microscope encased in a chamber that was maintained at 37° C. and was continuously perfused with humidified 5% CO2. Acquired images were analyzed using SoftWoRx and ImageJ.

The subject of test [2] is SW620 colorectal cancer cells. The test is described as follows: Serum-free cell survival of SW620 cells (Hoescht staining). Type of test: cell-based. As to conditions: 50 μM, 24 h.
The subject of test [3] is SW620 colorectal cancer cells. Described as above. It is filed as cell-based. As to conditions: Homo sapiens, SW-620, cysteine-reactive fragment 50 μM, 48 h, vs DMSO, average of n = 3/group, read-out: SW620 survival Ave. The method, then: as §2, §3
Test [4] concerns SW620 colorectal cancer cells. Kind of test: Cell proliferation of SW620 cells (Hoescht staining). Type of test: cell-based. The following applies: Homo sapiens, SW-620, cysteine-reactive fragment 50 μM, 48 h, vs DMSO, average of n = 3/group, read-out: SW620 proliferation Ave. The method, then: as §2, §3

Entries after “also recorded” stand apart in the source; their conditions may differ.

In the case of `C=CC(=O)Nc1ccc(Oc2ccc(C(C)(C)C)cc2)cc1` [AMR 1-125, N-(4-(4-(tert-butyl)phenoxy)phenyl)acrylamide], the “improved potency compared to DKM 3-30” value on pure human RTN4 protein (competition against probe labelling of pure human RTN4, from IC50 values of FIG. 11B) was around 7 fold. Besides, in the test with U2OS osteosarcoma cells, the “cell survival in U2OS cells” value was “impaired”. In test [1], the “ER morphology in U2OS cells” value was “impaired; also recorded: alters ER morphology”. In addition, the “cell survival in SW620 cells” value in test [2] was “impaired”.
As to `C=CC(=O)NCc1ccc(F)cc1` [DKM 2-34, N-(4-fluorobenzyl)acrylamide], the viability at 50 µM in test [3] came out at 78%. For the same compound, the activity at 50 µM in test [4] came out at 105%.
For `O=C(CCl)Nc1cccc2c1CCC2` [DKM 2-91, 2-chloro-N-(2,3-dihydro-1H-inden-4-yl)acetamide] the same measures were 38% and 59%.
Taken in the same sequence, the figures for `C=CC(=O)N1CCC(C(=O)OCC)CC1` [DKM 2-120, Ethyl 1-acryloylpiperidine-4-carboxylate] were 102% and 96%.
Taken in the same sequence, the figures for `C=CC(=O)NCc1ccccc1Cl` [DKM 2-60, N-(2-chlorobenzyl)acrylamide] were 108% and 100%.
Consider `C=CC(=O)Nc1ccc(OC)cc1` [TRH 1-32, N-(4-methoxyphenyl)acrylamide], for which, in test [3], the viability at 50 µM came out at 55%. The activity at 50 µM in test [4] is 100%.
For `C=CC(=O)NCCc1ccccc1` [DKM 2-42, N-phenethylacrylamide] the same measures were 104% and 137%.
With `C=CC(=O)NCc1ccccc1` [DKM 2-31, N-benzylacrylamide], the viability at 50 µM in test [3] turned out to be 89%. In addition, in test [4], the activity at 50 µM was found to be 116%.
For `C=CC(=O)NCCOc1ccccc1` [DKM 2-113, N-(2-phenoxyethyl)acrylamide] the same measures were 75% and 147%.
For `C=CC(=O)NCc1ccc2c(c1)OCO2` [DKM 3-43, N-(benzo[d][1,3]dioxol-5-ylmethyl)acrylamide] the same measures were 52% and 94%.
`C=CC(=O)N1CCN(c2ccc(OC)cc2)CC1` [DKM 3-36, 1-(4-(4-methoxyphenyl)piperazin-1-yl)prop-2-en-1-one]: the viability at 50 µM in test [3] amounted to 54%. Further, the activity at 50 µM in test [4] was determined as 97%.
Turning to `C=CC(=O)NCc1ccccc1[N+](=O)[O-]` [DKM 2-62, N-(2-nitrobenzyl)acrylamide], the viability at 50 µM in test [3] stood at 115%. The activity at 50 µM in test [4] turned out to be 95%.
Taken in the same sequence, the figures for `C=CC(=O)N1CCC(C)CC1` [DKM 3-8, 1-(4-methylpiperidin-1-yl)prop-2-en-1-one] were 152% and 105%.
Taken in the same sequence, the figures for `C=CC(=O)NCc1ccc(C(F)(F)F)cc1` [DKM 2-116, N-(4-(trifluoromethyl)benzyl)acrylamide] were 123% and 90%.
For `C=CC(=O)Nc1ccc(Oc2ccc(OC)cc2)cc1` [YP 1-46, N-(4-(4-methoxyphenoxy)phenyl)acrylamide], on pure human RTN4 protein (pure human RTN4 protein, gel-based ABPP), the “displacement of IAyne labelling of RTN4” value is “less displacement”. In addition, the “cell survival in U2OS cells” value in the test on U2OS osteosarcoma cells is “not”. The “ER morphology in U2OS cells” value in test [1] is on record as “not”.
On to `C=CC(=O)Nc1cccc2c1CCC2` [DKM 2-84, N-(2,3-dihydro-1H-inden-4-yl)acrylamide], for which the viability at 50 µM in test [3] was 74%. Moreover, the activity at 50 µM in test [4] was determined as 84%.
Consider `O=C(CCl)N1CCCC1` [DKM 2-71, 2-Chloro-1-(pyrrolidin-1-yl)ethan-1-one], for which, in test [3], the viability at 50 µM worked out at 81%. Moreover, the activity at 50 µM in test [4] was 41%.
For `C=CC(=O)NCc1ccc(-c2ccccc2)cc1` [DKM 2-37, N-([1,1′-biphenyl]-4-ylmethyl)acrylamide] the same measures were 57% and 73%.
Taken in the same sequence, the figures for `C=CC(=O)N1CCCC1` [DKM 2-48, 1-(pyrrolidin-1-yl)prop-2-en-1-one] were 90% and 85%.
Taken in the same sequence, the figures for `C=CC(=O)N1CCC(C#N)CC1` [DKM 3-11, 1-acryloylpiperidine-4-carbonitrile] were 120% and 118%.
`C=CC(=O)N1CCC(OC)CC1` [DKM 2-109, 1-(4-methoxypiperidin-1-yl)prop-2-en-1-one]: the viability at 50 µM in test [3] amounted to 140%. Also, the activity at 50 µM in test [4] was found to be 96%.
Taken in the same sequence, the figures for `C=CC(=O)Nc1cc(F)ccc1F` [DKM 2-40, N-(2,5-difluorophenyl)acrylamide] were 36% and 98%.
For `C=CC(=O)NCCCC` [DKM 2-102, N-butylacrylamide], the viability at 50 µM in test [3] is 124%. Further, the activity at 50 µM in test [4] amounted to 133%.
For `C=CC(=O)N1CCN(C(=O)OC(C)(C)C)CC1` [DKM 2-111, tert-butyl 4-acryloylpiperazine-1-carboxylate] the same measures were 133% and 106%.
Taken in the same sequence, the figures for `C=CC(=O)N1CCN(C(=O)OCC)CC1` [DKM 2-39, Ethyl 4-acryloylpiperazine-1-carboxylate] were 93% and 110%.
